Measured values: patent publication US11077100B2, “Tetrahydroquinoline derivatives as P2X7 receptor antagonists” (RaQualia Pharma Inc., priority 2017, dated 2021)

Biological target: human P2X7 (Homo sapiens (Human), UniProt Q99572)
Experiment: Human P2X7 functional assay (Ca2+ influx, Fluo-4, FDSS)
Assay type: cell-based
Conditions: antagonistic activity with respect to the human P2X7 receptor; BzATP final concentration 80 microM
Experimental: The ability of the 5,6,7,8-tetrahydroquinoline and 6,7-dihydro-5H-cyclopenta[b]pyridine derivatives of the formula (I) to inhibit the P2X7 channel was measured by Ca^2+ influx assay and electrophysiology assay described below.
Human P2X7 Functional Assay
The functional activity of compounds was determined by measuring changes in intracellular calcium concentration using a Ca^2+-sensitive fluorescent dye, Fluo-4 (Molecular Probes). The changes in fluorescent signal were monitored by the cell imaging technology by Hamamatsu Photonics's Functional Drug Screening System (FDSS). Increases in intracellular Ca^2+ concentration were readily detected upon activation with BzATP.
HEK293 cells stably expressing human P2X7 (GenBank accession number BC011913) carrying a C-terminal FLAG tag were grown in T225 flasks, in a 5% CO2 humidified incubator to about 80% confluence. Media composition consisted of Dulbecco's Modified Eagle Medium (high glucose), 10% fetal bovine serum ([…]), 100 units/[…] Penicillin, 100 microg/mL Streptomycin and 250 microg/mL Geneticine.
1. Plate-out HEK293-human P2X7 cells (40 microL medium containing 10,000 cells per well) into poly-D-lysine coated 384-well plates (Corning) at 24 h prior to assay.
2. Incubate at 37° C. in 5% CO2.
3. Incubate the plate at 37° C. in 5% CO2 for 1 h.
5. Test compounds were prepared at 100× the test concentration in DMSO by serial dilution with Biomek-FX liquid handling instrument. 33× diluted compound solutions in assay buffer were prepared in intermediate compound plate with Biomek-NX liquid handling instrument. A further 3× dilution occurred in below steps 6 and 7.
6. Add 20 microL of 33× diluted compound solutions into each well and leave the plate for 10 min under the dark at room temperature.
7. Measure activity by FDSS as follows: • Set the assay plate on the stacker of FDSS. • Start the detection of fluorescence intensity at 540 nm by 480 nm exicitation. • After 30 seconds, add 20 microL of assay buffer containing 240 microM BzATP (final concentration 80 microM).
IC50 values for compounds of the present invention were determined from 7-point dose-response studies. Curves were generated using the average of duplicate wells for each data point. Finally, the IC50 values are calculated with the best-fit dose curve determined by XLfit (ID Business Solutions Ltd.).

Sequence of human P2X7 (Q99572 whole entry): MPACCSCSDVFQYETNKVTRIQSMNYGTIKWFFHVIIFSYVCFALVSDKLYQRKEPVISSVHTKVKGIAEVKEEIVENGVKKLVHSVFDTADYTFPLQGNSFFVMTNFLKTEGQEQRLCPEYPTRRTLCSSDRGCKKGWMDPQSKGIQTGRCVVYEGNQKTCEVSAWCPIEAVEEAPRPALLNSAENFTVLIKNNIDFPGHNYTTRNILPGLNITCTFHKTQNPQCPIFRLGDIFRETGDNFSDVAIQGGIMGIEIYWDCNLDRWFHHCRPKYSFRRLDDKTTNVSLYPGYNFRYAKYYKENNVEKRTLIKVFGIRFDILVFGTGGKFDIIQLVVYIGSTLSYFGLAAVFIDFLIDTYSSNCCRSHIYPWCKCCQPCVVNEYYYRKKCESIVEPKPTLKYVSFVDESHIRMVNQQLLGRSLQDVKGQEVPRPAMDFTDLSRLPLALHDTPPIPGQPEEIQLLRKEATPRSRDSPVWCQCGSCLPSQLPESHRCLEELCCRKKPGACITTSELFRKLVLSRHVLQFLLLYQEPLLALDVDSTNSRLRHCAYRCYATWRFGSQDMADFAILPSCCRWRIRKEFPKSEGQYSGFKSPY

Row | Compound | IC50
1 | C[C@@H](NC(=O)[C@]1(F)CC[C@@H](O)c2ncccc21)c1ccc(Cl)cc1Cl [Example 119, (5S-8R)-N-((R)-1-(2,4-dichlorophenyl)ethyl)-5-fluoro-8-hydroxy-5,6,7,8-tetrahydroquinoline-5-carboxamide] | < 50 nM
2 | O=C(NCc1c(Cl)cc(Cl)cc1C(F)F)[C@@]1(F)CC[C@H](O)c2ncccc21 [Example 114] | 101 to 300 nM
3 | Cc1cc(Cl)cc(Cl)c1CNC(=O)[C@H]1C[C@@H](O)c2ncccc21 [Example 98, (5S,7R)-N-(2,4-dichloro-6-methylbenzyl)-7-hy-droxy-6,7-dihydro-5H-cyclopenta[b]pyridin-5-carboxamide] | 101 to 300 nM
4 | O=C(NCc1ccc(F)cc1C(F)(F)F)[C@@]1(F)CC[C@@H](O)c2ncccc21 [Example 143, (5R,8R)-5-fluoro-N-(4-fluoro-2-(trifluoromethyl)benzyl)-8-hydroxy-5,6,7,8-tetrahydroquinoline-5-carboxamide] | 301 to 1000 nM
5 | O=C(NCc1cc(Cl)cc(Cl)c1)[C@]1(F)CC[C@H](O)c2ncccc21 [Example 212, (5S,8S)-N-(3,5-dichlorobenzyl)-5-fluoro-8-hydroxy-5,6,7,8-tetrahydroquinoline-5-carboxamide] | 101 to 300 nM
6 | O=C(NCC1(c2ccc(Cl)cc2Cl)CCOCC1)[C@]1(F)CC[C@@](O)(CO)c2ncccc21 [Example 332, (5S,8S)-N-((4-(2,4-dichlorophenyl)tetrahydro-2H-pyran-4-yl)methyl)-5-fluoro-8-hydroxy-8-(hydroxymethyl)-5,6,7,8-tetrahydroquinoline-5-carboxamide] | 1000 to 3000 nM
7 | O=C(NCc1nc(-c2ccc(Cl)cc2)cs1)[C@]1(F)CC[C@H](O)c2ncccc21 [Example 213, (5S,8S)-N-((4-(4-chlorophenyl)thiazol-2-yl)methyl)-5-fluoro-8-hydroxy-5,6,7,8-tetrahydroquinoline-5-carboxamide] | 101 to 300 nM
8 | O=C(NCc1ccc(F)c(Cl)c1)[C@]1(F)CC[C@H](O)c2ncccc21 [Example 188, (5S,8S)-N-(3-chloro-4-fluorobenzyl)-5-fluoro-8-hydroxy-5,6,7,8-tetrahydroquinoline-5-carboxamide] | < 50 nM
9 | O=C(NCc1cc(F)c(F)cc1Cl)[C@]1(F)CC[C@@H](O)c2ncccc21 [Example 123, (5S,8R)-N-(2-chloro-4,5-difluorobenzyl)-5-fluoro-8-hydroxy-5,6,7,8,- tetrahydroqunioline-5-carboxamide] | 101 to 300 nM
10 | COc1cccc(Cl)c1CNC(=O)[C@]1(F)CC[C@H](O)c2ncccc21 [Example 198, (5S,8S)-N-(2-chloro-6-methoxybenzyl)-5-fluoro-8-hydroxy-5,6,7,8-tetrahydroquinoline-5-carboxamide] | < 50 nM
11 | O=C(N[C@H]1CCC[C@@H]1OCc1ccccc1)[C@]1(F)CC[C@H](O)c2ncccc21 [Example 225, (5S,8S)-N-((1S,2S)-2-(benzyloxy)cyclopentyl)-5-fluoro-8-hydroxy-5,6,7,8-tetrahydroquinoline-5-carboxamide] | 301 to 1000 nM
12 | O=C(NCc1c(F)cc(Cl)cc1Cl)[C@H]1CC[C@@H](O)c2ncccc21 [Example 92, (5S,8R)-N-(2,4-dichloro-6-fluorobneyzl)-8-hy-droxy-5,6,7,8-tetrahydro-quinoline-5-carboxamide] | 101 to 300 nM
13 | O=C(NCCOc1cccc(C(F)(F)F)c1)[C@]1(F)CC[C@H](O)c2ncccc21 [Example 219] | 301 to 1000 nM
14 | Cc1cnc2c(c1)[C@](F)(C(=O)NCc1ccc(F)cc1Cl)CC[C@]2(C)O [Example 276, (5S,8S)-N-(2-chloro-4-fluorobenzyl)-5-fluoro-8-hydroxy-3,8-dimethyl-5,6,7,8-tetrahydroquinoline-5-carboxamide] | 301 to 1000 nM
15 | O=C(NCc1ccc(Cl)cc1)[C@]1(F)CC[C@H](O)c2ncccc21 [Example 210, (5S,8S)-N-(4-chlorobenzyl)-5-fluoro-8-hydroxy-5,6,7,8-tetrahydroquinoline-5-carboxamide] | 101 to 300 nM
16 | COc1cccc(CNC(=O)[C@]2(F)CC[C@H](O)c3ncccc32)c1Cl [Example 224, (5S,8S)-N-(2-chloro-3-methoxybenzyl)-5-fluoro-8-hydroxy-5,6,7,8-tetrahydroquinoline-5-carboxamide] | 301 to 1000 nM

Row | Compound | IC50
17 | O=C(NCC(c1ccccc1)N1CCOCC1)[C@]1(F)CC[C@H](O)c2ncccc21 (mixture of isomers) [Example 235, (5S,8S)-5-fluoro-8-hydroxy-N-((rac)-2-morpholino-2-phenylethyl)-5,6,7,8-tetrahydroquinoline-5-carboxamide] | 1000 to 3000 nM
18 | O=C(NCc1cccc(C(F)(F)F)c1Cl)[C@@]1(F)CC[C@H](O)c2ncccc21 [Example 101, (5R,8S)-N-(2-chloro-3-(trifluoromethyl)benzyl)-5-fluoro-8-hydroxy-5,6,7,8-tetrahydroquinoline-5-carboxamide] | 101 to 300 nM
19 | O=C(NCc1c(F)cc(Cl)cc1Cl)[C@@]1(F)CC[C@H](O)c2ncccc21 [Example 116, (5R,8S)-N-(2,4-dichloro-6-fluorobenzyl)-5-fluoro-8-hydroxy-5,6,7,8-tetrahydroquinoline-5-carboxamide] | 301 to 1000 nM
20 | C[C@H](NC(=O)[C@]1(F)CC[C@](C)(O)c2ncccc21)c1ccc(F)cc1Cl [Example 271, (5S,8S)-N-((S)-1-(2-chloro-4-fluorophenyl)ethyl)-5-fluoro-8-hydroxy-8-methyl-5,6,7,8-tetrahydroquinoline-5-carboxamide] | 301 to 1000 nM
21 | O=C(NCc1ccc(F)c(F)c1F)[C@H]1CC[C@@H](O)c2ncccc21 [Example 94, (5S,8R)-8-hydroxy-N-(2,3,4-trifluorobenzyl)-5,6,7,8-tetrahydroquinoline-5-carboxamide] | 1000 to 3000 nM
22 | O=C(NCc1c(Cl)ccc(Cl)c1Cl)[C@]1(F)CC[C@@H](O)c2ncccc21 [Example 124, (5S,8R)-5-fluoro-8-hydroxy-N-(2,3,6-trichlorobenzyl)-5,6,7,8,- tetrahydroquinoline-5-carboxamide] | 101 to 300 nM
23 | O=C1CO[C@@]2(CC[C@](F)(C(=O)NCc3ccc(Cl)cc3Cl)c3cccnc32)CN1 [Example 293, (2S,5′R)-N-(2,4-dichlorobenzyl)-5′-fluoro-5-oxo-6′,7′-dihydro-5′H-spiro [morpholine-2,8′-quinoline]-5′-carboxamide] | 1000 to 3000 nM
24 | Cc1ccc(Cl)c(CNC(=O)[C@]2(F)CC[C@H](O)c3ncccc32)c1F [Example 216, (5S,8S)-N-(6-chloro-2-fluoro-3-methylbenzyl)-5-fluoro-8-hydroxy-5,6,7,8-tetrahydroquinoline-5-carboxamide] | 101 to 300 nM
25 | Cc1cc(Cl)cc(Cl)c1CNC(=O)C1CC[C@H](O)c2ncccc21 (stereo partly drawn) [Example 64, (5R,8S)-N-(2,4-dichloro-6-methylbenzyl)-8-hydrdroxy-5,6,7,8-tetra-hydroxyquinoline-5-carboxamide] | < 50 nM
26 | O=C(NCc1c(Cl)cc(C(F)(F)F)cc1Cl)[C@@]1(F)CC[C@@H](O)c2ncccc21 [Example 147, (5R,8R)-N-(2,6-dichloro-4-(trifluoromethyl)benzyl)-5-fluoro-8-hydroxy-5,6,7,8-tetrahydroquinoline-5-carboxamide] | < 50 nM
27 | O=C(NCc1ccc(Cl)cc1F)[C@@]1(F)CC[C@@H](O)c2ncccc21 [Example 145, (5R,8R)-N-(4-chloro-2-fluorobenzyl)-5-fluoro-8-hydroxy-5,6,7,8-tetrahydroquinoline-5-carboxamide] | 101 to 300 nM
28 | O=C(NCc1ccc(Cl)c(Cl)c1)[C@]1(F)CC[C@H](O)c2ncccc21 [Example 197, (5S,8S)-N-(3,4-dichlorobenzyl)-5-fluoro-8-hydroxy-5,6,7,8-tetrahydroquinoline-5-carboxamide] | < 50 nM
29 | O=C(NCc1ccc(F)cc1F)[C@]1(F)CC[C@@H](O)c2ncccc21 [Example 109, (5S,8R)-N-(2,4-difluoro-benzyl)-5-fluoro-8-hydroxy-5,6,7,8-tetrahydroquinoline-5-carboxamide] | 301 to 1000 nM
30 | O=C(NCc1ccc(F)cc1Cl)[C@H]1CC[C@@H](O)c2ncccc21 [Example 90, (5S,8R)-N-(2-chloro-4-fluorobenzyl)-8-hydroxy-5,6,7,8-tetrahydroquinoline-5-carboxamide] | 101 to 300 nM
31 | O=C(NCc1cc(F)ccc1Cl)[C@]1(F)CC[C@H](O)c2ncccc21 [Example 204, (5S,8S)-N-(2-chloro-5-fluorobenzyl)-5-fluoro-8-hydroxy-5,6,7,8-tetrahydroquinoline-5-carboxamide] | 50 to 100 nM
32 | O=C(NCc1c(Cl)cc(C(F)(F)F)cc1Cl)[C@@]1(F)CC[C@H](O)c2ncccc21 [Example 112, (5R,8S)-N-(2,6-dichloro-4-(trifluoromethyl)benzyl)-5-fluoro-8-hydroxy-5,6,7,8-tetrahydroquinoline-5-carboxamide] | 101 to 300 nM
